What was measured:
[1] = in vivo and in vitro, topical administration; cited from earlier work
[2] = transport of water-soluble material by association with nonionic vesicles

Row | Compound | effect of phospholipid liposomes on penetration into the skin [1] | transport by association with nonionic vesicles [2]
1 | C[C@]12CC[C@@H]3c4ccc(O)cc4CC[C@H]3[C@@H]1CC[C@@H]2O [estradiol] | do not improve penetration | –
2 | C[C@]12CCC(=O)C=C1CC[C@@H]1[C@@H]2[C@@H](O)C[C@@]2(C)[C@H]1CC[C@]2(O)C(=O)CO [hydrocortisone] | do not improve penetration | –
3 | CC(=O)[C@H]1CC[C@H]2[C@@H]3CCC4=CC(=O)CC[C@]4(C)[C@H]3CC[C@]12C [progesterone] | do not improve penetration | –
4 | TGF-α: water-soluble material tested for transport by association with nonionic vesicles | – | transported to a greater extent
5 | carboxyfluoroscein | – | transported to a greater extent
